Test results taken from patent publication US8426588B2, “Phenylalanine derivatives” (Ajinomoto Co, Inc., priority 2000, dated 2013).

Legend:
integrin α4β1 = biological target: T1, integrin α4β1 (Homo sapiens, UniProt P05556+P13612); assay: VCAM antagonist activity (VCAM-1/α4β1 binding assay), Jurkat cells binding to VCAM-1; format: cell-based; details: Jurkat human T cells binding to recombinant human VCAM-1; read-out: VCAM antagonistic activity (IC50) α4β1
T1 construct: cell strain Jurkat (ATCC TIB-152) of human T cells, known to express integrin α4β1; endogenous in cells; host or cells: Jurkat (ATCC TIB-152)
T1 sequence (P05556 21-798, one chain of several): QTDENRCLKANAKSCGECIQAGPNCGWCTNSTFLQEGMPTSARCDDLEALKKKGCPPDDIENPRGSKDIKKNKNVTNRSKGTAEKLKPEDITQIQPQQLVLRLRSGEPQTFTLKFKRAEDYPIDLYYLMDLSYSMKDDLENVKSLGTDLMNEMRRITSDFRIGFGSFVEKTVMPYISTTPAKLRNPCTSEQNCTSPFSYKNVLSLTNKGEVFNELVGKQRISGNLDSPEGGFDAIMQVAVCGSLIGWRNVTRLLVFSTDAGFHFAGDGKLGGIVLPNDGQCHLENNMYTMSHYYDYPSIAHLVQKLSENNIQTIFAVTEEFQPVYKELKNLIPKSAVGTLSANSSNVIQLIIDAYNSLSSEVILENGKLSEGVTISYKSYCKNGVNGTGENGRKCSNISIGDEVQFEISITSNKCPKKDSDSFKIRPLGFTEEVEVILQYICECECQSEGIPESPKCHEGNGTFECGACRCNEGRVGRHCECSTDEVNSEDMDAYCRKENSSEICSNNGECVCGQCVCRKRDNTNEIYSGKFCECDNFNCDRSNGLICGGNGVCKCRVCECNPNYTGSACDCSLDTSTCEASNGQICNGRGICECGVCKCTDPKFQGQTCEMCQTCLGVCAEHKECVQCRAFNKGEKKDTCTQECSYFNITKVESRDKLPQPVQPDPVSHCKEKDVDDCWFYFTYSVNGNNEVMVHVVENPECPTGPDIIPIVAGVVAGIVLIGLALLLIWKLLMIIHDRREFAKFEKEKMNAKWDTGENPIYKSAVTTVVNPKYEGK
Description: VCAM Antagonist Activity (VCAM-1/α4β1 Binding Assay)
The capacity of a test substance antagonistic to the binding of cell strain Jurkat (ATCC TIB-152) of human T cells, known to express integrin α4β1, to VCAM-1 was determined.
(§1) 100 μl/well of a solution (500 ng/ml) of recombinant human VCAM-1 (R & D systems) solution diluted with buffer A (0.1 M NaHCO3, pH 9.6) was added to a micro titer plate having 96 wells (Nunc Maxisorp). After the incubation at 4° C. overnight, unbound VCAM-1 was removed by washing once with PBS. After completion of the washing, a buffer (buffer B) obtained by diluting Block Ace (Dainippon Pharmaceutical Co., Ltd.) with PBS to ¼ concentration was added in an amount of 150 μl/well. After the incubation at room temperature for 1 hour, buffer B was removed and the plate was washed with PBS once.
Jurkat cells were washed with Dulbecco modified Eagle medium (SIGMA, hereinafter referred to as “DMEM”) twice and then incubated in DMEM containing 10 μg/ml of Calcein-AM (Wako Pure Chemical Industries, Ltd.) at 37° C. in dark place for 30 minutes to label with fluorescence. The cells were again suspended in a binding buffer (20 mM HEPES, DMEM containing 0.1% BSA).
(§2) 50 μl of a test substance of various concentrations obtained by the dilution with the binding buffer was added to the plate. Immediately thereafter, 50 μl (final volume: 100 μl/well) of the fluorescent Jurkat cells (4×10^6 cells/ml) were added thereto, and they were incubated in dark place at room temperature for 30 minutes. After the shaking on a plate shaker (IKA MTS-4) at 800 rpm for 30 seconds, the solution was immediately removed to remove the unbound cells. The fluorescence quantity of the bound cells remaining in the wells was determined with a fluorescent plate reader (Wallac 1920 ARVO multi-label counter) (filter excitation wave length: 485 nm, emission wave length: 535 nm). The fluorescent strength thus obtained is proportional to the number of Jurkat cells bound to VCAM-1 and remaining on the plate. The binding rate of each test material in various concentrations was determined while the fluorescent strength of the test material-free well was determined to be 100%.

integrin α4β7 = biological target: T2, integrin α4β7 (Homo sapiens, UniProt P13612+P26010); assay: VCAM antagonistic activity (VCAM-1/α4β7 binding assay), RPMI-8866 cells binding to VCAM-1; format: cell-based; details: RPMI-8866 human B lymphoma cells binding to recombinant human VCAM-1; binding buffer with 4 mM MnCl2
T2 construct: lymphoma cell strain RPMI-8866 of human B cells, known to express integrin α4β7; endogenous in cells; host or cells: RPMI-8866
T2 sequence (P13612 34-1032): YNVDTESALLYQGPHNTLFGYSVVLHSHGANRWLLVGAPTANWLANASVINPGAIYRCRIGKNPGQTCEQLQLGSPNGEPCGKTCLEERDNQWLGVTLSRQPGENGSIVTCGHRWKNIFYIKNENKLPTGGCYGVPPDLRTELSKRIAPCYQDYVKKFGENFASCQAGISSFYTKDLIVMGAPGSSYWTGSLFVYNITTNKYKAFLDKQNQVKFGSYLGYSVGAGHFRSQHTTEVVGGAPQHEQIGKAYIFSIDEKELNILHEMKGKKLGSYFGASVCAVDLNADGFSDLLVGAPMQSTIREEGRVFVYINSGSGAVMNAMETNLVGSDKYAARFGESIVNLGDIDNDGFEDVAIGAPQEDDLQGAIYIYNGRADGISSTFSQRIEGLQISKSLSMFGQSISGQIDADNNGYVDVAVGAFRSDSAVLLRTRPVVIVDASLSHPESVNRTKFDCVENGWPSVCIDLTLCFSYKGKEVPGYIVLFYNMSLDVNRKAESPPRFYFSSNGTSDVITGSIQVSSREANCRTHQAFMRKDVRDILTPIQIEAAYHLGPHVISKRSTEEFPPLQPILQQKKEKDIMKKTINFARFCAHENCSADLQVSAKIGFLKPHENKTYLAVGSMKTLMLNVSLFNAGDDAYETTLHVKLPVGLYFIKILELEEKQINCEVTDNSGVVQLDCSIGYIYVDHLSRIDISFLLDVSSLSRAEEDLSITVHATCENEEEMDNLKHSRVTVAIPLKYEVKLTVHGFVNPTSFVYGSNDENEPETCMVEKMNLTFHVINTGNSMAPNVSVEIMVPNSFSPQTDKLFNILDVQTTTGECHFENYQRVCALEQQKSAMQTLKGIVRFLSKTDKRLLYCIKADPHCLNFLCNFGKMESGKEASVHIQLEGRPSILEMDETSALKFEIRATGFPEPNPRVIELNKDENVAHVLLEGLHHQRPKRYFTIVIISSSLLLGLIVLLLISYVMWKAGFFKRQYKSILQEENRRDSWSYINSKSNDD
T2 sequence (P26010 20-798): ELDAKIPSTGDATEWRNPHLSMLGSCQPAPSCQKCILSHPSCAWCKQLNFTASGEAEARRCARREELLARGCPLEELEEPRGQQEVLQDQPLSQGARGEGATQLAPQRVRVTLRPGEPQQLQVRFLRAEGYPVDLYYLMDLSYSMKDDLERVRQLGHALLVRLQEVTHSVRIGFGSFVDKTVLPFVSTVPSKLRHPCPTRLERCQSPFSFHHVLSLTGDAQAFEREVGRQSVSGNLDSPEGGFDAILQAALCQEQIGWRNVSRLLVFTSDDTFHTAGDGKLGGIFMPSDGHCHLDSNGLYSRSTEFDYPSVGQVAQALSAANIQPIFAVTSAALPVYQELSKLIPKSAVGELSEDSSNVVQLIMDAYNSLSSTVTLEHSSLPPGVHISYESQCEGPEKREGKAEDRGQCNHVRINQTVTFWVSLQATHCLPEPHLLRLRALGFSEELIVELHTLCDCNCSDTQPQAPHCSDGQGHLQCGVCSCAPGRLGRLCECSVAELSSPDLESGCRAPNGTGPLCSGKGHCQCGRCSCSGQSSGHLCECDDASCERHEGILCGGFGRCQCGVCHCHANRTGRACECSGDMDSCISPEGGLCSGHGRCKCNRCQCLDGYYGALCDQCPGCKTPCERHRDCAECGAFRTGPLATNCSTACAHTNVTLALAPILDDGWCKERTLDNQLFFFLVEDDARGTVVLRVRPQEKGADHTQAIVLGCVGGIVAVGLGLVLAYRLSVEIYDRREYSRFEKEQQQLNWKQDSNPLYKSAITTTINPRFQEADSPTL
Description: VCAM Antagonistic Activity (VCAM-1/α4β7 Binding Assay)
The capacity of a test substance antagonistic to the binding of lymphoma cell strain RPMI-8866 of human B cells, known to express integrin α4β7, to VCAM-1 was determined.
as §1
RPMI-8866 cells were washed with DMEM twice and incubated in Dulbecco modified Eagle medium containing 10 μg/ml of Calcein-AM (Wako Pure Chemical Industries, Ltd.) (SIGMA, hereinafter referred to as “DMEM”) in dark place at 37° C. for 30 minutes to label with fluorescence. The cells were again suspended in a binding buffer (20 mM HEPES, DMEM containing 0.1% BSA) containing 4 mM of MnCl2.
as §2, with “RPMI-8866” for “Jurkat”, “1420” for “1920”

Compound	IC50 (integrin α4β1)	IC50 (integrin α4β7)
Cc1cccc2[nH]c(=O)n(-c3ccc(C[C@H](NC(=O)c4c(Cl)cccc4Cl)C(=O)O)cc3)c(=O)c12 [Example 53]	2.46 µM	0.0661 µM
O=C(N[C@@H](Cc1ccc(-n2c(=O)[nH]c3cccc(Cl)c3c2=O)cc1)C(=O)O)c1c(Cl)cccc1Cl [Example 54]	0.071 µM	0.0098 µM
O=C(N[C@@H](Cc1ccc(-n2c(=O)c3cc([N+](=O)[O-])ccc3n(C3CCCC3)c2=O)cc1)C(=O)O)c1c(Cl)cccc1Cl [Example 60]	0.78 µM	0.0361 µM
Cn1c(=O)n(-c2ccc(C[C@H](NC(=O)c3c(Cl)cccc3Cl)C(=O)O)cc2)c(=O)c2c(Cl)ccc(Cl)c21 [Example 70]	0.034 µM	0.0035 µM
Cn1c(=O)n(-c2ccc(C[C@H](NC(=O)c3c(Cl)cccc3Cl)C(=O)O)cc2)c(=O)c2cc(Cl)cc(Cl)c21 [Example 71]	0.185 µM	0.011 µM
Cn1c(=O)n(-c2ccc(C[C@H](NC(=O)c3c(Cl)cccc3Cl)C(=O)O)cc2)c(=O)c2ccc(F)cc21 [Example 72]	0.027 µM	0.0026 µM
Cn1c(=O)n(-c2ccc(C[C@H](NC(=O)c3c(Cl)cccc3Cl)C(=O)O)cc2)c(=O)c2cccnc21 [Example 74]	0.053 µM	0.0025 µM
O=C(N[C@@H](Cc1ccc(-n2c(=O)[nH]c3nccnc3c2=O)cc1)C(=O)O)c1c(Cl)cccc1Cl [Example 80]	0.96 µM	0.074 µM
O=C(N[C@@H](Cc1ccc(-n2nnc3c(Cl)ccc(Cl)c3c2=O)cc1)C(=O)O)c1c(Cl)cccc1Cl [Example 81]	0.072 µM	0.0086 µM
O=C(N[C@@H](Cc1ccc(-n2nnc3ccccc3c2=O)cc1)C(=O)O)c1c(Cl)cccc1Cl [Example 90]	0.511 µM	0.0437 µM
CCOc1nc2ccc(Cl)cc2c(=O)n1-c1ccc(C[C@H](NC(=O)c2c(Cl)cccc2Cl)C(=O)O)cc1 [Example 93]	4.03 µM	0.0048 µM
CCOc1nc2cc(F)ccc2c(=O)n1-c1ccc(C[C@H](NC(=O)c2c(Cl)cccc2Cl)C(=O)O)cc1 [Example 95]	0.96 µM	0.0018 µM
Cc1cccc2c1c(=O)n(-c1ccc(C[C@H](NC(=O)c3c(Cl)cccc3Cl)C(=O)O)cc1)c(=O)n2Cc1ccccc1 [Example 97]	1.5 µM	0.013 µM
CC(=O)Nc1ccc2c(c1)c(=O)n(-c1ccc(C[C@H](NC(=O)c3c(Cl)cccc3Cl)C(=O)O)cc1)c(=O)n2C [Example 104]	0.016 µM	0.0014 µM

Continued, values first:

IC50 (integrin α4β1)	IC50 (integrin α4β7)	Compound
0.639 µM	0.0299 µM	CC(C)n1c(=O)n(-c2ccc(C[C@H](NC(=O)c3c(Cl)cccc3Cl)C(=O)O)cc2)c(=O)c2cc([N+](=O)[O-])ccc21 [Example 57]
0.54 µM	0.0358 µM	O=C(N[C@@H](Cc1ccc(-n2c(=O)c3cc([N+](=O)[O-])ccc3n(C3CCC3)c2=O)cc1)C(=O)O)c1c(Cl)cccc1Cl [Example 59]
1.15 µM	0.042 µM	CC(C)Cn1c(=O)n(-c2ccc(C[C@H](NC(=O)c3c(Cl)cccc3Cl)C(=O)O)cc2)c(=O)c2cc([N+](=O)[O-])ccc21 [Example 61]
1.45 µM	0.045 µM	O=C(N[C@@H](Cc1ccc(-n2c(=O)c3cc([N+](=O)[O-])ccc3n(CC3CCCCC3)c2=O)cc1)C(=O)O)c1c(Cl)cccc1Cl [Example 62]
0.028 µM	0.0013 µM	Cn1c(=O)n(-c2ccc(C[C@H](NC(=O)c3c(Cl)cccc3Cl)C(=O)O)cc2)c(=O)c2cc([N+](=O)[O-])ccc21 [Example 63]
0.33 µM	0.007 µM	O=C(N[C@@H](Cc1ccc(-n2c(=O)c3cc([N+](=O)[O-])ccc3n(Cc3ccccc3)c2=O)cc1)C(=O)O)c1c(Cl)cccc1Cl [Example 65]
0.17 µM	0.0013 µM	Cn1c(=S)n(-c2ccc(C[C@H](NC(=O)c3c(Cl)cccc3Cl)C(=O)O)cc2)c(=O)c2cc([N+](=O)[O-])ccc21 [Example 66]
0.37 µM	0.0022 µM	CCn1c(=S)n(-c2ccc(C[C@H](NC(=O)c3c(Cl)cccc3Cl)C(=O)O)cc2)c(=O)c2cc([N+](=O)[O-])ccc21 [Example 67]
0.35 µM	0.0015 µM	O=C(N[C@@H](Cc1ccc(-n2c(=O)c3cc([N+](=O)[O-])ccc3n(C3CC3)c2=S)cc1)C(=O)O)c1c(Cl)cccc1Cl [Example 68]
5.63 µM	0.0025 µM	O=C(N[C@@H](Cc1ccc(-n2c(=O)c3cc([N+](=O)[O-])ccc3n(Cc3ccccc3)c2=S)cc1)C(=O)O)c1c(Cl)cccc1Cl [Example 69]
